# In patent US11351185B2, “Use of isovalerylspiramycins as anti-cancer agents to inhibit metastasis” (priority 2020, dated 2022):
# “Also recorded” adds a separate entry of the source.
# Assays:
# Format in all cases: cell-based
# JNK2, POL1, TIF1A = assay: Western blot of JNK2 phosphorylation, POL1 and TIF1A; conditions: LN229 cells
# Procedure: (§1) SELH is localized in the nucleolus, which is a sensor of oxidative stress. Yang et al., Nature communications 7: 13599 (2016); Novoselov et al., J. Biol. Chem. 282: 11960 (2007). […] JNK2 activation by oxidative stress inactivated RNA polymerase I (POL1) transcription factor TIF1A in the nucleoli to down-regulate rRNA synthesis. Mayer et al., Genes Dev. 19: 933 (2005). To investigate whether the ribosomal biogenesis was disrupted by ISP I, pre-rRNA transcription was evaluated using real-time RT-PCR analysis in LN229 cells. […] To examine the mechanisms by which ISP I disrupts POL1 transcription, the inventors initially evaluated JNK2 activity and the overall state of the transcription machinery in ISP I-treated LN229 cells.
# Western blotting was performed to detect the protein expression level of SELH, NRF2 and γH2AX regulated by ISP I. The cells were lysed by RIPA buffer from ThermoFisher Scientific, and the concentration was measured using DC Protein Assay, a Bio-Rad product. Equal amounts of protein of each sample were loaded for gel electrophoresis and were transferred to nitrocellulose membrane, blocked and incubated overnight at 4° C. with primary antibodies. Then the membranes were washed with TBST (3 times, 10 min each). Exposure, imaging, and data analysis were done using a KwikQuant Imager system, a product of Kindle Biosciences (Greenwich, Conn. USA). […]
# 786-O and RCC4 cells = assay: Annexin V apoptosis flow cytometry, RCC cells
# Procedure: To confirm the cytotoxic effect observed in the glioblastoma cell lines, the inventors assessed ISP I's effect on renal cell carcinoma (RCC) cell lines (ACHN, UM-RC-2, RCC4 and 786-0). Cell viability was assessed similarly via CKK8 analysis. […] (FIG. 4C, D).
# Cells (2×10^5) were plated in 6-well plates and treated with different concentrations of ISP I. Then the cells were harvested and washed three times with PBS. Cells were resuspended in 100 μl binding buffer and were incubated with 5 μl APC-conjugated Annexin V working solution, a product of BD bioscience (Franklin Lakes, N.J. USA), and 1 μl propidium iodide (PI), a product of Invitrogen, for 15 min at room temperature with protection from light. Data acquisition and quantification were processed with BD LSRFortessa flow cytometer, using FlowJo software (Ashland, Oreg. USA).
# [1] = tested on: glutathione-dependent peroxidases (SELH enzyme activity); assay: Glutathione peroxidase activity assay; conditions: LN229 cells
# Source text: (§2) Since glutathione peroxidase catalyzes the reduction of reactive oxidative species (ROS), the inventors assessed whether treatment with ISP I increased the generation of ROS in glioblastoma cell lines (LN229 and U251) and RCC cell lines (786-O and RCC4).
# Glutathione peroxidase kit (Abcam, Cambridge, Mass. USA) was used to quantitate the activity of all of the glutathione-dependent peroxidases in live cells (2×10^6), which were harvested and homogenized with assay buffer provided in the kit. Then the supernatant was collected and incubated in accordance with the manufacturer's instructions. Absorbance at 340 nm was measured using the microplate reader mentioned above.
# [2] = tested on: mitochondrial ROS (superoxide); assay: MitoSOX staining, flow cytometry; conditions: 24 hours
# Procedure: as §2
# To detect changes in mitochondrial superoxide after treatment with ISP I, the inventors used the MitoSOX Red mitochondrial superoxide indicator kit, a product of ThermoFisher Scientific. […] Cells were incubated with 5 μM MitoSOX Red for 15 min at room temperature, followed by flow cytometry analysis. Excitation by means of a 561 nm laser and a 610/20 discriminating filter was applied by a BD LSRFortessa flow cytometer.
# [3] = tested on: meningioma cell lines IOMM, JEN, CH-157; assay: CCK8 cell viability assay, meningioma cell lines; conditions: 48 hours
# Procedure: Cell viability was measured by Cell Counting Kit-8 (CCK-8, Dojindo Molecular Technologies, Tokyo, Japan). Cells were seeded in 96-well plates at a density of 3×10^3 cells/well and cultured for 24 hours before treatment with ISP I at different concentration. After treatment for a gradient ISP I concentration from 0 to 20 μg/ml for 48 hours, while control groups were only treated in PBS solution, 10 μl of CCK-8 solution were added to each well and cells were incubated for an additional 2 hours. The absorbance in each well at a wavelength of OD450 was detected by the Synergy H1 microplate reader, a product of BioTek (Winooski, Vt. USA).
# intracellular ROS = assay: ROS-Glo H2O2 assay; conditions: 24 hours
# Procedure: as §2
# Cell ROS level change brought about by ISP I was measured by ROS-Glo H2O2 assay kit, a product of Promega (Madison, Wis. USA). After treatment with ISP I for 24 hours, H2O2 substrate was added and cells were incubated for 6 hours. After incubation the supernatant was collected and was incubated with ROS-Glo™ Detection Solution for 20 min at room temperature with protection from light. Luciferase data were obtained with the Synergy H1 microplate reader, a product of BioTek (Winooski, Vt. USA).
# γH2AX = γH2AX immunofluorescence staining and western blot (DNA damage); conditions: 6 hours
# Procedure: It is well-established that increased levels of ROS in cells leads to oxidative DNA damage, inducing genomic instability and inhibiting cell cycle progression. Cooke et al., FASEB J. 17: 1195 (2003). Since ISP I downregulates SELH, a key regulator of ROS response elements, the inventors first assessed whether treatment with ISP I augmented DNA damage in vitro.
# Western blotting was performed to detect the protein expression level of SELH, NRF2 and γH2AX regulated by ISP I. The cells were lysed by RIPA buffer from ThermoFisher Scientific, and the concentration was measured using DC Protein Assay, a Bio-Rad product. Equal amounts of protein of each sample were loaded for gel electrophoresis and were transferred to nitrocellulose membrane, blocked and incubated overnight at 4° C. with primary antibodies. Then the membranes were washed with TBST (3 times, 10 min each). Exposure, imaging, and data analysis were done using a KwikQuant Imager system, a product of Kindle Biosciences (Greenwich, Conn. USA). The following antibodies were used: anti-phospho-histone H2A.X (Ser139), anti-NRF2 (Cell Signaling, Danvers, Mass. USA), anti-SELH (Abcam, Cambridge, Mass. USA), anti-GAPDH (Millipore, Temecula, Calif. USA).
# For immunofluorescence assay, cells were seeded on a 35-mm confocal dish with glass bottom and were treated with ISP I. […] Then the cells were incubated with secondary antibody conjugated with Alexa Fluor-594 (Invitrogen), followed by staining with DAPI for nuclei. Images were obtained using Zeiss LSM 780 microscopy (Carl Zeiss, Oberkochen Germany).
# TIF1A-POL1 interaction = assay: Co-immunoprecipitation of TIF1A and POL1; conditions: LN229 cells; 10 μg/mL
# Procedure: as §1
# For co-immunoprecipitation analysis, LN229 wild-type cells, LN229 cells treated with 10 μg/mL of ISP I, and LN229 cells transfected with SELH siRNA for 24 hours were harvested, and total protein was prepared from cells using Dynabeads Co-Immunoprecipitation Kit (ThermoFisher) according to the manufacturer's protocol. Immunoblotting then was performed using anti-SELH antibody.
smiles,measurement,setting,value
"COC1C(O)CC(=O)OC(C)CC=CC=CC(OC2CCC(N(C)C)C(C)O2)C(C)CC(CC=O)C1OC1OC(C)C(OC2CC(C)(O)C(OC(=O)CC(C)C)C(C)O2)C(N(C)C)C1O (stereo not shown) [ISP I, 4″-isolvalerylspiramycin I]",JNK phosphorylation (western blot),"JNK2, POL1, TIF1A",increased JNK2 phosphorylation; also recorded: JNK1 phosphorylation increased
same,POL1 and TIF1A expression (western blot),"JNK2, POL1, TIF1A",slightly reducing POL1 and TIF1A expression in a dose-dependent manner; also recorded: expression of POL1 and TIF1A slightly decreased
same,apoptosis (Annexin V stain),786-O and RCC4 cells,induced a dose-dependent apoptosis
same,glutathione peroxidase activity,[1],"decrease, in a dose-dependent manner, of SELH enzyme activity; also recorded: significantly reduced glutathione peroxidase activity"
same,mitochondrial ROS (MitoSOX),"[2]; LN229 and U251, 5 μg/mL or 10 μg/mL",increase of mitochondrial ROS accumulation; also recorded: higher intracellular ROS in a dose-dependent manner
same,mitochondrial ROS (MitoSOX),"[2]; RCC cells 786-O and RCC4, 5 μg/ml or 10 μg/ml",increase in mitochondrial ROS accumulation; also recorded: higher intracellular ROS in a dose-dependent manner
same,cytotoxic effect on meningioma cell lines,[3],demonstrated a cytotoxic effect
same,intracellular ROS level (ROS-Glo H2O2),"intracellular ROS; 786-O and RCC4, 10 μg/ml",increased intracellular ROS levels
same,intracellular ROS level (ROS-Glo H2O2),"intracellular ROS; LN229 and U251, 10 μg/mL",increased intracellular ROS levels
same,γH2AX expression (DNA damage marker),γH2AX; 786-O and RCC4,increase of γH2AX expression
same,γH2AX expression (DNA damage marker),γH2AX; LN229 and U251,higher quantities of γH2A.X
same,γH2AX expression (DNA damage marker),"γH2AX; LN229 and U251, listed as ISP 1",increase of γH2AX expression
same,TIF1A-POL1 interaction (co-immunoprecipitation),TIF1A-POL1 interaction,interaction was disrupted by ISP I treatment
